Measurements taken from PubChem BioAssay (NCI).
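Step 1: Grow cells in 96-well plates. Step 2: Expose to compound for 48 hours at 5 concentrations. Step 3: Interpolate endpoints linearly; if unreached, use highest concentration. TGI marks complete inhibition of growth.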

Tests used:
Experiment in all cases: NCI anticancer screen, dose series, 48 h
786-0 renal = test system: 786-0 renal
SK-MEL-28 melanoma = test system: SK-MEL-28 melanoma
TK-10 renal = test system: TK-10 renal
UACC-62 melanoma = test system: UACC-62 melanoma
HCT-15 colon = test system: HCT-15 colon
SK-MEL-5 melanoma = test system: SK-MEL-5 melanoma
HL-60(TB) leukemia = test system: HL-60(TB) leukemia
M14 melanoma = test system: M14 melanoma
U251 CNS = test system: U251 CNS
DU-145 prostate = test system: DU-145 prostate
HOP-92 NSCLC = test system: HOP-92 NSCLC
SNB-19 CNS = test system: SNB-19 CNS
NCI-H460 lung = test system: NCI-H460 lung
COLO 205 colon = test system: COLO 205 colon
NCI-H522 lung = test system: NCI-H522 lung
UO-31 renal = test system: UO-31 renal
T-47D breast = test system: T-47D breast
MDA-MB-231 breast = test system: MDA-MB-231 breast
KM12 colon = test system: KM12 colon
OVCAR-3 ovarian = test system: OVCAR-3 ovarian
HOP-62 NSCLC = test system: HOP-62 NSCLC
OVCAR-5 ovarian = test system: OVCAR-5 ovarian
MDA-N = test system: MDA-N
HS 578T breast = test system: HS 578T breast
SNB-75 CNS = test system: SNB-75 CNS
A498 renal = test system: A498 renal
UACC-257 melanoma = test system: UACC-257 melanoma
LOX IMVI melanoma = test system: LOX IMVI melanoma
OVCAR-8 ovarian = test system: OVCAR-8 ovarian
RXF 393 renal = test system: RXF 393 renal
HCT-116 colon = test system: HCT-116 colon
SF-268 CNS = test system: SF-268 CNS
NCI/ADR-RES ovarian = test system: NCI/ADR-RES ovarian
PC-3 prostate = test system: PC-3 prostate
NCI-H226 lung = test system: NCI-H226 lung
SK-MEL-2 melanoma = test system: SK-MEL-2 melanoma
EKVX NSCLC = test system: EKVX NSCLC
SF-295 CNS = test system: SF-295 CNS
A549 NSCLC = test system: A549 NSCLC
MALME-3M melanoma = test system: MALME-3M melanoma
MCF7 breast = test system: MCF7 breast
OVCAR-4 ovarian = test system: OVCAR-4 ovarian
BT-549 breast = test system: BT-549 breast
CAKI-1 renal = test system: CAKI-1 renal
HT29 colon = test system: HT29 colon
CCRF-CEM leukemia = test system: CCRF-CEM leukemia
MDA-MB-435 = test system: MDA-MB-435
IGROV1 ovarian = test system: IGROV1 ovarian
MOLT-4 leukemia = test system: MOLT-4 leukemia
RPMI-8226 leukemia = test system: RPMI-8226 leukemia
SK-OV-3 ovarian = test system: SK-OV-3 ovarian
SN12C renal = test system: SN12C renal
K-562 leukemia = test system: K-562 leukemia
ACHN renal = test system: ACHN renal
NCI-H23 lung = test system: NCI-H23 lung
SF-539 CNS = test system: SF-539 CNS
SW-620 colon = test system: SW-620 colon
HCC-2998 colon = test system: HCC-2998 colon
SR leukemia = test system: SR leukemia

Measured: TGI

COC(=O)Nc1nc2ccc(NC(=O)c3ccc(I)cc3)cc2[nH]1
not listed: HCC-2998 colon | SR leukemia
> 100 µM: all other assays above

CC1(C)Oc2ccc3c(=O)cc(-c4ccccc4)oc3c2C1C(=O)O (stereo not given)
not listed: SK-MEL-28 melanoma | HOP-92 NSCLC | SNB-19 CNS | NCI-H460 lung | UO-31 renal | KM12 colon | SNB-75 CNS | LOX IMVI melanoma | RPMI-8226 leukemia | ACHN renal | SW-620 colon
> 100 µM: all other assays above
